molecular target: T1, human CXCR3 (N-delta 4) (Homo sapiens, UniProt P49682); assay: Human CXCR3 (N-delta 4) Scintillation Proximity Assay (SPA), [125I] IP-10 binding to Ba/F3-hCXCR3 membranes; conditions: IC50 rating, Table 1; read-out: IC50
T1 construct: CD8 leader (N); Flag; expressed in transfected cells; membranes prepared
T1 sequence (P49682 5-368 limits assumed): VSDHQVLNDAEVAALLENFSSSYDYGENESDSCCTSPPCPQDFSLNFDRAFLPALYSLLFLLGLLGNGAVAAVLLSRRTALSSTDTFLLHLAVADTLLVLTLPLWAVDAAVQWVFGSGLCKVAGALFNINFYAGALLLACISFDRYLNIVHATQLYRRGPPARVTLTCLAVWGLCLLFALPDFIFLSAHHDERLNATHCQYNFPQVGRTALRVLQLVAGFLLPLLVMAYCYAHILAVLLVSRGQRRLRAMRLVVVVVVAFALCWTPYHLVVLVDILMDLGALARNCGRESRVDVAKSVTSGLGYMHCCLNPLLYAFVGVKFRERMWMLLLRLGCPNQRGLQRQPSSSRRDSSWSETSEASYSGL

Row | IC50 | Compound
1 | < 25 nM | CC[C@H]1CN(c2nc(N)c(C(=O)NCCNS(C)(=O)=O)nc2Cl)CCN1C1CCN(Cc2ccc(Cl)cc2)CC1 [compound 245]
2 | 25 to 100 nM | CC[C@H]1CN(c2nc(N)c(C(=O)NCCNS(C)(=O)=O)nc2Cl)CCN1C1CCN(Cc2ccc(C#N)cc2)CC1 [compound 247]
3 | 25 to 100 nM | CC[C@H]1CN(c2nc(N)c(C(=O)NCCNS(C)(=O)=O)nc2Cl)CCN1C1CCN(Cc2ccc(Cl)cc2C#N)CC1 [compound 253]
4 | 25 to 100 nM | CC[C@H]1CN(c2nc(N)c(C(=O)NCCNS(=O)(=O)N(C)C)nc2Cl)CCN1C1CCN(Cc2ccc(C#N)cc2)CC1 [compound 255]
5 | < 25 nM | CC[C@H]1CN(c2nc(N)c(C(=O)NCCNS(N)(=O)=O)nc2Cl)CCN1C1CCN(Cc2ccc(Cl)cc2C(=N)N)CC1 [compound 258]
6 | < 25 nM | CC[C@H]1CN(c2nc(N)c(C(=O)NCCNS(N)(=O)=O)nc2Cl)CCN1C1CCN(C(CO)c2ccc(Cl)cc2)CC1 (stereo partly drawn) [compound 259]
7 | > 100 nM | CC[C@H]1CN(c2nc(N)c(C(=O)NCCNS(N)(=O)=O)nc2Cl)CCN1C1CCN([C@H](CO)c2ccc(Cl)cc2)CC1 [compound 262]
8 | < 25 nM | CC[C@H]1CN(c2nc(N)c(C(=O)NCCNS(N)(=O)=O)nc2Cl)CCN1C1CCN(Cc2ccc(Cl)cc2)CC1 [compound 264]
9 | < 25 nM | CC[C@H]1CN(c2nc(N)c(C(=O)NCCNS(N)(=O)=O)nc2Cl)CCN1C1CCN(Cc2ccc(F)c(F)c2)CC1 [compound 265]
10 | < 25 nM | CC[C@H]1CN(c2nc(N)c(C(=O)NCCNS(N)(=O)=O)nc2Cl)CCN1C1CCN(Cc2ccc(C#N)cc2)CC1 [compound 266]

The remaining lines, values behind:

Row | Compound | IC50
11 | CC[C@H]1CN(c2nc(N)c(C(=O)NCCNS(C)(=O)=O)nc2Cl)CCN1C1CCN(Cc2ccc(Cl)cc2C(=N)N)CC1 [compound 243] | < 25 nM
12 | CC[C@H]1CN(c2nc(N)c(C(=O)NCCNS(C)(=O)=O)nc2Cl)CCN1C1CCN([C@@H](CO)c2ccc(Cl)cc2)CC1 [compound 244] | < 25 nM
13 | CCOC(=O)/N=C(\N)c1cc(Cl)ccc1CN1CCC(N2CCN(c3nc(N)c(C(=O)NCCNS(C)(=O)=O)nc3Cl)C[C@@H]2CC)CC1 [compound 246] | < 25 nM
14 | CC[C@H]1CN(c2nc(N)c(C(=O)NCCNS(C)(=O)=O)nc2Cl)CCN1C1CCN(Cc2ccc(Cl)cc2N2CC[C@@H](O)C2)CC1 [compound 248] | 25 to 100 nM
15 | CC[C@H]1CN(c2nc(N)c(C(=O)NCCNS(C)(=O)=O)nc2Cl)CCN1C1CCN([C@H](CO)c2ccc(Cl)cc2)CC1 [compound 249] | 25 to 100 nM
16 | CC[C@H]1CN(c2nc(N)c(C(=O)NCCNS(C)(=O)=O)nc2Cl)CCN1C1CCN([C@@H](C(=O)OC)c2ccc(Cl)cc2)CC1 [compound 250] | 25 to 100 nM
17 | CC[C@H]1CN(c2nc(N)c(C(=O)NCCNS(C)(=O)=O)nc2Cl)CCN1C1CCN([C@H](C(=O)OC)c2ccc(Cl)cc2)CC1 [compound 251] | > 100 nM
18 | CC[C@H]1CN(c2nc(N)c(C(=O)NCCNS(C)(=O)=O)nc2Cl)CCN1C1CCN(Cc2ccc(F)c(F)c2N2CC[C@@H](O)C2)CC1 [compound 252] | 25 to 100 nM
19 | CC[C@H]1CN(c2nc(N)c(C(=O)NCCNS(C)(=O)=O)nc2Cl)CCN1C1CCN(Cc2ccc(Cl)cc2C(=N)NC)CC1 [compound 254] | 25 to 100 nM
20 | CC[C@H]1CN(c2nc(NCc3ccc(F)c(F)c3)c(C(=O)NCCNS(N)(=O)=O)nc2Cl)CCN1C1CCN(Cc2ccc(F)c(F)c2)CC1 [compound 256] | < 25 nM
21 | CC[C@H]1CN(c2nc(N)c(C(=O)NCCNS(N)(=O)=O)nc2Cl)CCN1C1CCN([C@@H](CO)c2ccc(Cl)cc2)CC1 [compound 257] | < 25 nM
22 | CC[C@H]1CN(c2nc(N)c(C(=O)NCCNS(N)(=O)=O)nc2Cl)CCN1C1CCN(Cc2ccc(Cl)cc2C(=N)NC)CC1 [compound 260] | < 25 nM
23 | CC[C@H]1CN(c2nc(N)c(C(=O)NCCNS(N)(=O)=O)nc2Cl)CCN1C1CCN([C@@H](C(=O)OC)c2ccc(Cl)cc2)CC1 [compound 261] | 25 to 100 nM
24 | CC[C@H]1CN(c2nc(N)c(C(=O)NCCNS(N)(=O)=O)nc2Cl)CCN1C1CCN(C(C(=O)OC)c2ccc(Cl)cc2)CC1 (stereo partly drawn) [compound 263] | > 100 nM

Reference: US7868005B2, “Pyrazinyl substituted piperazine-piperidines with CXCR3 antagonist activity” (Schering Corporation, priority 2005, dated 2011)
